The subject of the first series is Cas12a gRNA target sites on Glycine max A3335 chromosome 13. As to the kind of experiment: gRNA/LbCas12a target site editing in stably transformed soybean plants (AmpSeq). Type of series: in vivo. Conditions: plants with target site edits / plants examined x 100. An excerpt:
CRISPR Cas12a-based cleavage of DNA sequences requires the use of gRNAs that can target specific sequences (target sites) comprising a Cas12a-recognizable protospacer adjacent motif (PAM) sequence so as to facilitate Cas12a enzymatic activity and DNA cleavage. The 10 cM window was scanned for the presence of the LbCas12a-preferred PAM (TTTV, where “V” is A, C, or G) that were unique in the genome (i.e., that only occur once in the genome). This set was additionally filtered so as to identify gRNA target sites that were more than 2 kb from a coding region, more than 1 kb from a small RNA hotspot, and comprised 700 nucleotides (nt) of unique sequence on either side. A suite of genomic target sites was identified from this analysis and 12 were chosen for testing based on additional factors like GC content, and absence of potential off-targets. PAM sites are italicized and shown in bold. The corresponding 23 bp gRNA spacer (SP) sequences are also identified and represented by SEQ ID NOs:223-234.
Three Agrobacterium T-DNA vectors were designed to evaluate gRNA and LbCas12a nuclease mediated cleavage at the selected target sites. Each T-DNA vector contained 3 cassettes between the left and right borders on the T-DNA: an aadA selection marker cassette, an LbCas12a Cas12a cassette, and a multiplexed gRNA cassette. The aadA and LbCas12a cassettes were common across the three vectors. The aadA expression cassette contained the aadA gene (also known as Tn7 adenylyltransferase (AAD(3″)) from E. coli under the control of a constitutive promoter, and targeted the aadA protein to the chloroplast for selection of transgenic events resistant to spectinomycin and streptomycin. The LbCas12a cassette comprised a plant codon optimized LbCas12a (SEQ ID NO:236) flanked by the same nuclear localization signal sequence (NLS) at the 5′ and 3′ ends (SEQ ID NO:235) and a 3′UTR sequence (SEQ ID NO:237) derived from a Medicago truncatula gene. The gene cassette comprising NLS-Cas12aLbCas12a-NLS sequence was fused 3′ to an ATGGCG sequence and operably linked to a chimeric promoter sequence (SEQ ID NO:238) comprising an enhancer region from the Banana Streak Virus (Strain Acuminata Vietnam) and promoter with the 5′ UTR region from the Dahlia mosaic virus.
The guide RNA cassette in vector pG947 comprised a Glycine max Pol III promoter operably linked to a transcribable sequence comprising in order a DR sequence (SEQ ID NO:239), spacer SP10 (SEQ ID NO:232), DR (SEQ ID NO: 239), spacer SP11 (SEQ ID NO:233), DR (SEQ ID NO: 239), spacer SP2 (SEQ ID NO:224), DR (SEQ ID NO: 239), spacer SP12 (SEQ ID NO:234), DR and a poly (T)7 terminator. The guide RNA cassette in vector pG949 comprised a Glycine max Pol III promoter operably linked to a transcribable sequence comprising in order a DR sequence (SEQ ID NO:239), spacer SP9 (SEQ ID NO:231), DR (SEQ ID NO: 239), spacer SP7 (SEQ ID NO:229), DR (SEQ ID NO: 239), spacer SP1 (SEQ ID NO:223), DR (SEQ ID NO: 239), spacer SP5 (SEQ ID NO:227), DR (SEQ ID NO: 239) and a poly (T)7 terminator. The guide RNA cassette in vector pG950 comprised a Glycine max Pal III promoter operably linked to a transcribable sequence comprising in order a DR sequence (SEQ II) NO:239), spacer SP3 (SEQ ID NO:225), DR (SEQ ID NO: 239), spacer SP6 (SEQ ID NO:228), DR (SEQ ID NO: 239), spacer SP4 (SEQ ID NO:226), DR (SEQ ID NO: 239), spacer P8 (SEQ ID NO:230), DR and a poly (T)7 terminator.
The three plant transformation vectors were introduced into soybean seed-derived embryo explants through Agrobacterium-mediated transformation using methods known in the art. Transformed plants were selected on spectinomycin. Genomic DNA was extracted from leaf samples harvested from regenerated plantlets. Each targeted region was amplified by PCR. […]
For the compound “GmTS3: LbCas12a gRNA for target site GmTS3 (SEQ ID NO:213), spacer SP3 (SEQ ID NO:225) (guide GCAAGATCCGCTGCCTGCTTGAG; expressed or natural sequence)”, the “Target Editing Rate (%)” value was determined as 8.3%.
On the same count and under the same terms, for “GmTS9: LbCas12a gRNA for target site GmTS9 (SEQ ID NO:219), spacer SP9 (SEQ ID NO:231) (guide CGGAGTAGCAGAGAGGAGATTCG; expressed or natural sequence)” the value was 36.9%.
Still for that read-out and setting: the value for “GmTS11: LbCas12a gRNA for target site GmTS11 (SEQ ID NO:221), spacer SP11 (SEQ ID NO:233) (guide GCTCGCTATATATATGTGTCACA; expressed or natural sequence)” was 48.8%; that for “GmTS4: LbCas12a gRNA for target site GmTS4 (SEQ ID NO:214), spacer SP4 (SEQ ID NO:226) (guide CCTTGATTTGGATTAACCCGCCA; expressed or natural sequence)” was 8.3%; that for “GmTS1: LbCas12a gRNA for target site GmTS1 (SEQ ID NO:211), spacer SP1 (SEQ ID NO:223) (guide CAAACATCACATGGCCGGATAAG; expressed or natural sequence)” was 2.4%.
Same read-out and setting: for “GmTS6: LbCas12a gRNA for target site GmTS6 (SEQ ID NO:216), spacer SP6 (SEQ ID NO:228) (guide CATGCTGTCATCATCTGTTCACT; expressed or natural sequence)” the value was 17.9%.
As for “GmTS5: LbCas12a gRNA for target site GmTS5 (SEQ ID NO:215), spacer SP5 (SEQ ID NO:227) (guide CTAAATCGCATAGCTTGTGTGTT; expressed or natural sequence)”, the “Target Editing Rate (%)” value amounted to 14.3%.
For the compound “GmTS7: LbCas12a gRNA for target site GmTS7 (SEQ ID NO:217), spacer SP7 (SEQ ID NO:229) (guide CCTATATCTGTTTCAGTGATTGC; expressed or natural sequence)”, the “Target Editing Rate (%)” value is listed as 23.8%.
The same measure, in the same setting: the value for “GmTS10: LbCas12a gRNA for target site GmTS10 (SEQ ID NO:220), spacer SP10 (SEQ ID NO:232) (guide ATCAAAGCTAAAGCATAAGCATC; expressed or natural sequence)” was 45.1%.
Same read-out and setting: the value for “GmTS12: LbCas12a gRNA for target site GmTS12 (SEQ ID NO:222), spacer SP12 (SEQ ID NO:234) (guide GACATATATGCTATATCATTCTC; expressed or natural sequence)” was 72%; that for “GmTS2: LbCas12a gRNA for target site GmTS2 (SEQ ID NO:212), spacer SP2 (SEQ ID NO:224) (guide CTTCCTGAGGAAATTTGGTTTCA; expressed or natural sequence)” was 7.3%.

The next series deals with wild-type control in the same transformation germplasm. As to the kind of experiment: Controlled environment PPO herbicide tolerance trial, wild-type control. Type of series: in vivo, Glycine max. The settings on record: 1× rate, sprayed at V3 stage, greenhouse, rated 11 days after herbicide applications. The procedure: (§1) An efficacy trial was conducted in the controlled environment to evaluate tolerance of event Gm_CSM63717 to various PPO herbicides. The experiment included the lead event (Gm_CSM63717) and a wild-type control in the same transformation germplasm, and consisted of nine individual PPO herbicide treatments, all at 1× rates. These included butafenacil, flumioxazin, fomesafen, lactofen, pyroflufen, saflufenacil, Voraxor (trifludimoxazin and salflufenacil), sulfentrazone, cyclopropylmethyl (2-{2-chloro-4-fluoro-5-[3-methyl-2,6-dioxo-4-(trifluoromethyl)-3,6-dihydropyrimidin-1(2H)-yl]phenoxy}phenoxy)acetate, and an untreated control. The herbicide formulations contained 1% (v/v) Crop Oil Concentrate (COC, Prime Oil, Winfield Solutions, LLC, P. O. Box 64589, St. Paul, MN 55164-0589) for sulfentrazone, fomesafen, lactofen, or 1% (v/v) methylated seed oil (Destiny® HC, Winfield Solutions, LLC, P. O. Box 64589, St. Paul, MN 55164-0589) for flumioxazin, saflufenacil, Voraxor, pyroflufen, butafenacil, and cyclopropylmethyl (2-{2-chloro-4-fluoro-5-[3-methyl-2,6-dioxo-4-(trifluoromethyl)-3,6-dihydropyrimidin-1(2H)-yl]phenoxy}phenoxy)acetate. There were 10 replications per treatment. The plants were grown under standard greenhouse conditions, and were sprayed with each herbicide at V3 stage, and were visually rated for herbicide injury 11 days after herbicide applications.
Regarding `Cn1c(C(F)(F)F)cc(=O)n(-c2cc(Oc3ccccc3OCC(=O)OCC3CC3)c(Cl)cc2F)c1=O` [cyclopropylmethyl (2-{2-chloro-4-fluoro-5-[3-methyl-2,6-dioxo-4-(trifluoromethyl)-3,6-dihydropyrimidin-1(2H)-yl]phenoxy}phenoxy)acetate], the “Injury (%) WT Control” value came to 89%.

A further series relates to soybean event Gm_CSM63717. As to the kind of experiment: Controlled environment PPO herbicide tolerance trial, event Gm_CSM63717. The settings on record: 1× rate, sprayed at V3 stage, greenhouse, rated 11 days after herbicide applications. Type of series: in vivo, Glycine max. How it is done: as §1
`Cn1c(C(F)(F)F)cc(=O)n(-c2cc(Oc3ccccc3OCC(=O)OCC3CC3)c(Cl)cc2F)c1=O` [cyclopropylmethyl (2-{2-chloro-4-fluoro-5-[3-methyl-2,6-dioxo-4-(trifluoromethyl)-3,6-dihydropyrimidin-1(2H)-yl]phenoxy}phenoxy)acetate]: the “Injury (%) Gm_CSM63717” value turned out to be 0%.

The record behind these values is patent US20250197952A1, “TRANSGENIC SOYBEAN EVENT GM_CSM63717 AND COMPOSITIONS AND METHODS FOR DETECTION AND USES THEREOF” (Monsanto Technology LLC, priority 2023, published 2025).
